Results on 35 molecules are retold here after patent US9890171B2, “Aldosterone synthase inhibitors” (Boehringer Ingelheim International GmbH, priority 2014, dated 2018).

aldosterone synthase (CYP11B2), sequence (A0A2K5UPL9 1-503): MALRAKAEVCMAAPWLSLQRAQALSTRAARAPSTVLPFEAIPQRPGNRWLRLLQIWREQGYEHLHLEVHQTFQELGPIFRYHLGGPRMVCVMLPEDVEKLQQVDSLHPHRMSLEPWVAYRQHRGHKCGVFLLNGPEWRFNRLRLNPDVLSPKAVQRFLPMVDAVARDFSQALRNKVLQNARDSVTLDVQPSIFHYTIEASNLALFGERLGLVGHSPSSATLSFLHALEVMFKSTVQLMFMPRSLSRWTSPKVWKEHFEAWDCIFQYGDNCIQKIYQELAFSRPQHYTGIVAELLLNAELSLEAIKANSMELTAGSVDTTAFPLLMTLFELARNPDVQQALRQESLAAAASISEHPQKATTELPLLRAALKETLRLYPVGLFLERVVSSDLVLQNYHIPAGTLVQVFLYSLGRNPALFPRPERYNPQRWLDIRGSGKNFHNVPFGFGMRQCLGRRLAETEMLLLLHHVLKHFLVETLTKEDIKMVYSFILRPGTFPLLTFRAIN

This assay deals with aldosterone synthase (CYP11B2) (Macaca fascicularis, UniProt A0A2K5UPL9). Put plainly: aldosterone synthase inhibition assay. Format: biochemical, cynomolgus monkey. The following applies: cynomolgus adrenal gland mitochondria, 2 μM corticosterone, aldosterone quantified by mass spectrometry. The method, then:
The aldosterone synthase inhibition assay employs cynomolgus adrenal gland mitochondria as the source of aldosterone synthase (CYP11B2). Mitochondria are prepared from frozen cynomolgus monkey adrenal glands according to Method A described in by J. D. McGarry et al. (Biochem. J., 1983, 214, 21-28), with a final resuspension in the AT buffer described in R. Yamaguchi et al. (Cell Death and Differentiation, 2007, 14, 616-624), frozen as aliquots in liquid nitrogen and stored at −80° C. until use.
Assays are performed in 96-well format in a final volume of 60 μL/well, containing 100 mM potassium phosphate, pH 7.4, 1% (v/v) DMSO, and additionally, 2 μM of corticosterone and […] of mitochondrial protein. Reactions are started by the addition of NADPH to 1 mM and allowed to proceed for 60-90 minutes at 37° C. Reactions are terminated by the addition of […]. One hundred microliters are then transferred to a glass filter plate and centrifuged at 570×g for 5 minutes and the filtrate is collected. Reaction product aldosterone is quantified by mass spectrometry. To determine the assay blank value (0% activity), NADPH is omitted from some reactions.
Dose dependent inhibition is quantified by the inclusion of compound at various concentrations. Maximum activity (100%) is defined by reactions containing NADPH, but without compound. Activities at each concentration are expressed as a percentage of the maximum activity (y-axis) and plotted against concentration of compound (x-axis) and the concentration corresponding to 50% activity (IC50) determined using the XLFit curve-fitting program using a 4-parameter logistic model.
With `O=C1CCc2cc(-c3cncc4c3COCC4O)ccc2N1` (single isomer, unassigned) [Compound 1, 6-(4-Hydroxy-3,4-dihydro-1H-pyrano[4,3-c]pyridin-8-yl)-3,4-dihydro-1H-quinolin-2-one], the IC50 worked out at 28.9 nM.
On to `O=C1CCc2cc(-c3cncc4c3COCC4O)ccc2N1` (single isomer, unassigned) [Compound 2, 6-(4-Hydroxy-3,4-dihydro-1H-pyrano[4,3-c]pyridin-8-yl)-3,4-dihydro-1H-quinolin-2-one], for which the midpoint of inhibition, the IC50, lay at 101 nM. This IC50 is about 3.5-fold higher than that of the molecule before.
For `OC1COCc2c(-c3ccccc3)cncc21` (single isomer, unassigned) [Compound 3, 8-Phenyl-3,4-dihydro-1H-pyrano[4,3-c]pyridin-4-ol] the value was 484 nM; for `N#Cc1ccc(-c2cncc3c2COCC3O)cc1` (single isomer, unassigned) [Compound 4, 4-(4-Hydroxy-3,4-dihydro-1H-pyrano[4,3-c]pyridin-8-yl)-benzonitrile], 42 nM; for `OC1COCc2c(-c3ccccc3)cncc21` (single isomer, unassigned) [Compound 5, 8-Phenyl-3,4-dihydro-1H-pyrano[4,3-c]pyridin-4-ol], 55 nM.
The figure for `N#Cc1ccc(-c2cncc3c2COCC3O)cc1` (single isomer, unassigned) [Compound 6, 4-(4-Hydroxy-3,4-dihydro-1H-pyrano[4,3-c]pyridin-8-yl)-benzonitrile] is 9.8 nM; for `N#Cc1ccc(-c2cncc3c2COCC3O)cc1Cl` (single isomer, unassigned) [Compound 7, 2-Chloro-4-(4-hydroxy-3,4-dihydro-1H-pyrano[4,3-c]pyridin-8-yl)-benzonitrile] it is 6.1 nM; for `CC(C)Oc1nc(-c2cncc3c2COCC3O)cs1` (single isomer, unassigned) [Compound 8, 8-(2-Isopropoxy-thiazol-4-yl)-3,4-dihydro-1H-pyrano[4,3-c]pyridin-4-ol] it is 3700 nM.
Molecule `Cc1n[nH]c2ccc(-c3cncc4c3COCC4O)cc12` (single isomer, unassigned) [Compound 10, 8-(3-Methyl-1H-indazol-5-yl)-3,4-dihydro-1H-pyrano[4,3-c]pyridin-4-ol] yielded an IC50 of 115 nM.
`Cc1n[nH]c2cc(-c3cncc4c3COCC4O)ccc12` (single isomer, unassigned) [Compound 11, 8-(3-Methyl-1H-indazol-6-yl)-3,4-dihydro-1H-pyrano[4,3-c]pyridin-4-ol] showed a half-inhibitory concentration (IC50) of 690 nM. This IC50 is about 6-fold higher than that of the molecule before.
The figure for `Cc1n[nH]c2ccc(-c3cncc4c3COCC4O)cc12` (single isomer, unassigned) [Compound 12, 8-(3-Methyl-1H-indazol-5-yl)-3,4-dihydro-1H-pyrano[4,3-c]pyridin-4-ol] is 21 nM.
For `Cc1n[nH]c2cc(-c3cncc4c3COCC4O)ccc12` (single isomer, unassigned) [Compound 13, 8-(3-Methyl-1H-indazol-6-yl)-3,4-dihydro-1H-pyrano[4,3-c]pyridin-4-ol] the value was 81 nM.
For `Cn1nnc2ccc(-c3cncc4c3COCC4O)cc21` (single isomer, unassigned) [Compound 14, 8-(3-Methyl-3H-benzotriazol-5-yl)-3,4-dihydro-1H-pyrano[4,3-c]pyridin-4-ol] the value was 15.7 nM.
Take `Cn1nc(F)c2ccc(-c3cncc4c3COCC4O)cc21` (single isomer, unassigned) [Compound 15, 8-(3-Fluoro-1-methyl-1H-indazol-6-yl)-3,4-dihydro-1H-pyrano[4,3-c]pyridin-4-ol]: the midpoint of inhibition, the IC50, lay at 7.8 nM.
The figure for `Cn1ncc2ccc(-c3cncc4c3COC3(CC3)C4O)cc21` (single isomer, unassigned) [Compound 16, 8-(1-methylindazol-6-yl)spiro[1,4-dihydropyrano[4,3-c]pyridine-3,1′-cyclopropane]-4-ol] is 12.5 nM.
For `Cn1ncc2ccc(-c3cncc4c3COC3(CC3)C4O)cc21` (single isomer, unassigned) [Compound 17, 8-(1-methylindazol-6-yl)spiro[1,4-dihydropyrano[4,3-c]pyridine-3,1′-cyclopropane]-4-ol] the value was 8 nM; for `Cn1ncc2cc(F)c(-c3cncc4c3COCC4O)cc21` (single isomer, unassigned) [Compound 18, 8-(5-Fluoro-1-methyl-1H-indazol-6-yl)-3,4-dihydro-1H-pyrano[4,3-c]pyridin-4-ol], 20.1 nM.
For `Cn1ncc2cc(F)c(-c3cncc4c3COCC4O)cc21` (single isomer, unassigned) [Compound 19, 8-(5-Fluoro-1-methyl-1H-indazol-6-yl)-3,4-dihydro-1H-pyrano[4,3-c]pyridin-4-ol] the value was 153 nM; for `OC1COCc2c(-c3ccc4scnc4c3)cncc21` (single isomer, unassigned) [Compound 20, 8-Benzothiazol-5-yl-3,4-dihydro-1H-pyrano[4,3-c]pyridin-4-ol], 681 nM.
Molecule `OC1COCc2c(-c3ccc4cc[nH]c4c3)cncc21` (single isomer, unassigned) [Compound 21, 8-(1H-Indol-6-yl)-3,4-dihydro-1H-pyrano[4,3-c]pyridin-4-ol] registered an IC50 of 195 nM.
The figure for `OC1COCc2c(-c3ccc4ncccc4c3)cncc21` (single isomer, unassigned) [Compound 22, 8-Quinolin-6-yl-3,4-dihydro-1H-pyrano[4,3-c]pyridin-4-ol] is 64.1 nM; for `Cn1ncc2cc(-c3cncc4c3COCC4O)ccc21` (single isomer, unassigned) [Compound 23, 8-(1-Methyl-1H-indazol-5-yl)-3,4-dihydro-1H-pyrano[4,3-c]pyridin-4-ol] it is 195 nM.
The figure for `OC1COCc2c(-c3ccc4cn[nH]c4c3)cncc21` (single isomer, unassigned) [Compound 24, 8-(1H-Indazol-6-yl)-3,4-dihydro-1H-pyrano[4,3-c]pyridin-4-ol] is 480 nM.
The figure for `OC1COCc2c(-c3ccc4c(c3)OCCO4)cncc21` (single isomer, unassigned) [Compound 25, 8-(2,3-Dihydro-benzo[1,4]dioxin-6-yl)-3,4-dihydro-1H-pyrano[4,3-c]pyridin-4-ol] is 159 nM; for `Cc1nn(C)c(C)c1-c1cncc2c1COCC2O` (single isomer, unassigned) [Compound 26, 8-(1,3,5-Trimethyl-1H-pyrazol-4-yl)-3,4-dihydro-1H-pyrano[4,3-c]pyridin-4-ol] it is 1500 nM.
The molecule `OC1COCc2c(-c3cnc4[nH]ccc4c3)cncc21` (single isomer, unassigned) [Compound 27, 8-(1H-Pyrrolo[2,3-b]pyridin-5-yl)-3,4-dihydro-1H-pyrano[4,3-c]pyridin-4-ol] gave an IC50 of 1300 nM.
The figure for `OC1COCc2c(-c3ccc4c(c3)OCCCO4)cncc21` (single isomer, unassigned) [Compound 28, 8-(3,4-Dihydro-2H-benzo[b][1,4]dioxepin-7-yl)-3,4-dihydro-1H-pyrano[4,3-c]pyridin-4-ol] is 333 nM.
The figure for `Cn1ncc2ccc(-c3cncc4c3COCC4O)cc21` (single isomer, unassigned) [Compound 29, 8-(1-Methyl-1H-indazol-6-yl)-3,4-dihydro-1H-pyrano[4,3-c]pyridin-4-ol] is 48.6 nM; for `OC1COCc2c(-c3ccc4cnccc4c3)cncc21` (single isomer, unassigned) [Compound 30, 8-Isoquinolin-6-yl-3,4-dihydro-1H-pyrano[4,3-c]pyridin-4-ol] it is 54 nM.
The figure for `OC1COCc2c(-c3ccc4[nH]ccc4c3)cncc21` (single isomer, unassigned) [Compound 31, 8-(1H-Indol-5-yl)-3,4-dihydro-1H-pyrano[4,3-c]pyridin-4-ol] is 160 nM; for `Cn1cc(-c2cncc3c2COCC3O)cn1` (single isomer, unassigned) [Compound 32, 8-(1-Methyl-1H-pyrazol-4-yl)-3,4-dihydro-1H-pyrano[4,3-c]pyridin-4-ol] it is 2700 nM; for `OC1COCc2c(-c3ccc4scnc4c3)cncc21` (single isomer, unassigned) [Compound 33, 8-Benzothiazol-5-yl-3,4-dihydro-1H-pyrano[4,3-c]pyridin-4-ol] it is 40.5 nM.
Molecule `OC1COCc2c(-c3ccc4cc[nH]c4c3)cncc21` (single isomer, unassigned) [Compound 34, 8-(1H-Indol-6-yl)-3,4-dihydro-1H-pyrano[4,3-c]pyridin-4-ol] returned an IC50 of 17.3 nM.
For `OC1COCc2c(-c3ccc4ncccc4c3)cncc21` (single isomer, unassigned) [Compound 35, 8-Quinolin-6-yl-3,4-dihydro-1H-pyrano[4,3-c]pyridin-4-ol] the value was 9.7 nM; for `Cn1ncc2cc(-c3cncc4c3COCC4O)ccc21` (single isomer, unassigned) [Compound 36, 8-(1-Methyl-1H-indazol-5-yl)-3,4-dihydro-1H-pyrano[4,3-c]pyridin-4-ol], 17.5 nM.

The term IC50 denotes the concentration that gives 50% inhibition. Higher therefore signals weaker potency in that assay.
